Data set [1] has as its system Human airway epithelial cell line BEAS-2B. Put plainly: Cytotoxicity test (WST-8 assay) after direct contact of test liquids with cells for about 2 hours; normalized cell survival rate. The settings on record: direct contact with test liquid about 2 hours, WST-8 24 hours after contact, control liquid (0.5% FBS-containing RPMI-1640) = 1. In general terms: Tetrazolium assays rely on reduction of a dye to a coloured formazan, in cell work by metabolically active cells.

In data set [2] the test system is leaves of Arabidopsis thaliana.
Experimental: (§1) Further, the leaves used for the test after observation were soaked in water over 16 hours followed by observation. Water was used as a control. Although water is cytotoxic to naked cells, it is not cytotoxic to cells having cell walls, and thus could be used as a control.
The subject of data set [3] is leaves of Arabidopsis thaliana. As to the kind of experiment: Soaking of plant leaves in organic solvents, observation of appearance. As to conditions: for change in the appearance of leaves: leaf of A. thaliana soaked in the solvent, observed after 2 hours.
Experimental: as §1
Data set [4] concerns human airway epithelial cells Calu-3. Put plainly: WST-8 absorbance of cells on porous support after contact with solutions of PFOA in hydrofluoroether. It is filed as cell-based. As to conditions: PFOA in hydrofluoroether (C4F9OC2H5); for absorbance (WST-8): 15 hours. The procedure:
In the present Example, hydrofluoroether (C4F9OC2H5) was used as the non-hydrophilic liquid and perfluorooctanoic acid (PFOA) was used as the non-hydrophilic substance. Solutions of PFOA in hydrofluoroether having various PFOA concentrations ([…], 1 and 10 g/L) were prepared. The solutions correspond to the second liquid of the present disclosure.
In the similar manner as Example 4 except that the solutions of PFOA in hydrofluoroether were used, the procedure was carried out up to the pre-cultivation step. Thereafter the cultivation step was carried out by using the solutions as the second liquid and leaving the device in the CO2 incubator for 15 hours.
Thereafter […], was removed from the cavity of the insert 24, 200 μl of an aqueous solution of a medium containing WST-8 (2-(2-methoxy-4-nitrophenyl)-3(4-nitrophenyl)-5-(2,4-disulfophenyl)-2H-tetrazolium), which is a kind of a tetrazolium salt, was added and the device was let to stand in the CO2 incubator for 20 minutes for cultivation.
Thereafter 100 μl of the medium was transferred from the insert 24 of the cell structure into a microplate and the absorbance at the wavelengths 450 nm and 600 nm was measured.

Data set [5] has the same test system. Put plainly: Transepithelial electric resistance (TER) of cells on porous support after contact with non-hydrophilic liquids. It is filed as cell-based. The settings on record: Calu-3, 3 hours contact with 200 ul liquid, TER after 24 hours in fresh medium, FIG. 18. The method, then: In the present Example, an action of non-hydrophilic liquids having the fluorocarbon structure was evaluated using human airway epithelial cells Calu-3. As a device for evaluation, the evaluation device 20 illustrated in FIG. 16 was used. […] At the bottom of each insert, a porous support 28 is provided that can retain and cultivate cells.
Cells were inoculated on each support 28 in the insert 24 and the space in the well 22 other than the insert 24 and the cavity in the insert 24 were filled with the cell growth medium. The evaluation device 20 was then left to stand in a CO2 incubator for a few days to allow dense growth of cells on the whole upper surface of the support 28, thereby carrying out the pre-cultivation step. In the pre-cultivation step, the transepithelial electric resistance (TER) was measured over time to confirm that a barrier (coverage and functional tight junctions) was constructed on the surface of the cells that is in contact with the insert 24.
Next, a cell structure illustrated in FIG. 17 was prepared. […]
After 24 hours, the cells on the support 28 in the cell structure removed from the CO2 incubator were again measured for the transepithelial electric resistance (TER) after removal of the growth medium in order to confirm the extent of formation of the cell barrier. […]

Read-outs that look alike come from different tables or passages of the source.

As for `O` [P1, Water, reference compound], the “Normalized cell survival rate” value in data set [1] is on record as 0.01. In the case of `CCO` [P2, Ethanol, reference compound], in data set [1], the “Normalized cell survival rate” value is 0.01. Moreover, the “change in the appearance of leaves” value in data set [2] is “eroded epidermal cells of the leaves of A. thaliana and caused effusion of chlorophyll”. As for `CC(C)=O` [P3, Acetone, reference compound], in data set [1], the “Normalized cell survival rate” value is 0.01. The “change in the appearance of leaves” value in data set [3] is “eroded epidermal cells of the leaves of A. thaliana and caused effusion of chlorophyll”. In addition, the “change in the appearance of leaves after subsequent soaking in water” value in data set [3] (leaves after the 2 hours test soaked in water over 16 hours, compared to control water) is “caused atrophy (deformation) of leaves of A. thaliana”. For `CCOCC` [P4, Diethyl ether, reference compound], the “Normalized cell survival rate” value in data set [1] is recorded as 0.01. With `O=C(O)C(F)(F)C(F)(F)C(F)(F)C(F)(F)C(F)(F)C(F)(F)C(F)(F)F` [PFOA, perfluorooctanoic acid], in data set [4] (Calu-3, 15 hours), the “PFOA concentration with an action of causing cell death” value is given as ≥ 1 g/L. Also, the “absorbance (WST-8)” value in data set [4] (at or above 1 g/L of PFOA) is listed as “hardly detected”; in data set [4] (until PFOA concentration 0.1 g/L) it was “almost at the same level”. For the compound `FC(F)(F)c1cccc(C(F)(F)F)c1` [S1, 1,3-Bis(Trifluoromethyl) Benzene], the “Normalized cell survival rate” value in data set [1] stood at 0.01.

On to `FC(F)(F)C(F)(F)C(F)(F)C(F)(F)C(F)(F)C(F)(F)F` [S2, Perfluorohexane, PFC 5060], for which the “effect on cell death or intercellular tight junctions (TER)” value in data set [5] was “significantly promoted cell death and the like”.

On to `OCC(F)(F)C(F)(F)C(F)(F)C(F)(F)C(F)(F)C(F)F` [S4, 1H,1H,7H-Dodecafluoro-1-heptanol], for which, in data set [1], the “Normalized cell survival rate” value came to 0.01. The same measure, in the same setting: with `COC(F)(F)C(F)(F)C(F)(F)C(F)(F)F` [S5, HFE-7100] the figure was 1.04.

For the compound `COC(F)(C(F)(F)C(F)(F)F)C(F)(C(F)(F)F)C(F)(F)F` (stereo not shown) [S7, HFE-7300], the “Normalized cell survival rate” value in data set [1] is listed as 0.92. The “change in the appearance of leaves” value in data set [3] is recorded as “did not change an appearance of leaves of A. thaliana”. Take `C[Si](C)(C)O[Si](C)(C)C` [S16, OS-10 (Hexamethyldisiloxane)]: in data set [1], the “Normalized cell survival rate” value was determined as 0. On the same count and under the same terms, with `C[Si](C)(C)O[Si](C)(C)O[Si](C)(C)C` [S17, OS-20 (Octamethyltrisiloxane)] the figure was 0.05.

For the compound `C[Si](C)(C)O[Si](C)(C)O[Si](C)(C)O[Si](C)(C)C` [S18, OS-30 (Decamethyltetrasiloxane)], the “Normalized cell survival rate” value in data set [1] turned out to be 0.92. Same read-out and setting: for `C[Si]1(C)O[Si](C)(C)O[Si](C)(C)O[Si](C)(C)O[Si](C)(C)O1` [S19, Decamethylcyclopentasiloxane] the value was 0.92; for `FC(F)(F)C(F)(F)C(F)(F)C(F)(F)C(F)(F)C(F)(F)C(F)(F)C(F)(F)Br` [S20, 1-Bromoperfluorooctane], 1.2; for `COC(F)(F)C(F)(F)C(F)(F)F` [S21, HFE-7000], 1.01. Regarding HFE-7200 [S6], the “Normalized cell survival rate” value in data set [1] is 0.88. Moreover, in data set [5], the “effect on cell death or intercellular tight junctions (TER)” value is reported as “had less effect on cell death or intercellular tight junctions than perfluorohexane, which effect was almost the same as the controls”. Also, the “change in the appearance of leaves” value in data set [3] was “did not change an appearance of leaves of A. thaliana”.

(Values after US20160313303A1, “BICOMPATIBLE LIQUID AND METHOD FOR SCREENING SAME” (KABUSHIKI KAISHA TOYOTA CHUO KENKYUSHO, priority 2015, published 2016).)
